According to ChEMBL document CHEMBL1955725, “Structure-guided lead optimization of triazolopyrimidine-ring substituents identifies potent Plasmodium falciparum dihydroorotate dehydrogenase inhibitors with clinical candidate potential” (J Med Chem, 2011):

Columns and labels:
in vivo = settings: Swiss outbred, mouse, po, 0.4 mg/kg
Mus musculus [1] = test: AUC (0 to 48 hrs) in Swiss outbred mouse plasma at 50 mg/kg, po; assay type: ADME, organism-based; parameters: time < 48 hr, dose 50 mg/kg, route oral; settings: in vivo
[2] = Clearance in Sprague-Dawley rat at 4.5 mg/kg, iv; assay type: ADME, organism-based; parameters: dose 4.5 mg/kg, route intravenous; settings: in vivo
Liver microsomes = test: Intrinsic clearance in human liver microsomes; assay type: ADME, Microsome
HepG2 = test: Cytotoxicity against human HepG2 cells; assay type: cell-based
Plasmodium falciparum [3] = test: Antimalarial activity against Plasmodium falciparum 3D7 by [3H]hypoxanthine incorporation assay in presence of human serum; assay type: functional, organism-based
[4] = Plasma protein binding in Swiss outbred mouse by ultracentrifugation; settings: read-out: PPB (converted)
Plasmodium falciparum [5] = test: Antimalarial activity against chloroquine-resistant Plasmodium falciparum Dd2 by [3H]hypoxanthine incorporation assay in presence of human serum; assay type: functional, organism-based
[6] = AUC (0 to infinity) in Sprague-Dawley rat at 21.2 mg/kg, po; assay type: ADME, organism-based; parameters: time infinity, dose 21.2 mg/kg, route oral; settings: plasma
[7] = Lipophilicity, log D of the compound at pH 7.4; assay type: physicochemical; settings: buffer
[8] = Cmax in Sprague-Dawley rat at 21.2 mg/kg, po; assay type: ADME, organism-based; parameters: dose 21.2 mg/kg, route oral; settings: in vivo
[9] = Cmax in Sprague-Dawley rat at 2 mg/kg, po; assay type: ADME, organism-based; parameters: dose 2 mg/kg, route oral; settings: in vivo
Mus musculus [10] = test: AUC (0 to 10 hrs) in human RBC engrafted NOD-SCID IL-2Rgamma-null mouse at 5.7 mg/kg, po; assay type: ADME, organism-based, Plasma; parameters: time < 10 hr, dose 5.7 mg/kg, route oral; settings: in vivo
[11] = Inhibition of Plasmodium berghei C-terminal hexa-His tagged DHODH expressed in Escherichia coli by DCIP reduction assay
[12] = AUC (0 to infinity) in Sprague-Dawley rat at 2 mg/kg, po; assay type: ADME, organism-based; parameters: time infinity, dose 2 mg/kg, route oral; settings: plasma
Plasma = test: Plasma protein binding in human by ultracentrifugation method; assay type: ADME, cell-free

Cc1cc(Nc2ccc(C(F)(F)F)cc2)n2nc(C(C)(F)F)nc2n1
Tmax (in vivo): 30 min | AUC (Mus musculus [1]): 14815 µM·min | clearance [2]: 12.6 mL/min/kg | Intrinsic clearance (Liver microsomes): < 5 µL/min/mg | EC50 (HepG2): > 50000 nM | EC50 (Plasmodium falciparum [3]): 10 nM | fraction unbound [4]: 0.026 | EC50 (Plasmodium falciparum [5]): 13 nM | AUC(0-inf) [6]: 342 µM·h | logD [7]: 3.3 | Cmax [8]: 11.4 µM | Cmax [9]: 0.9 µM | AUC (Mus musculus [10]): 2521 µM·min | IC50 [11]: 2400 nM | AUC(0-inf) [12]: 3.88 µM·h | PPB (Plasma): 98.8%
